For 17 compounds, EC50 results are on record in BindingDB's records for doi:10.7270/Q2736PBV (Broad Institute, 2009).

As a reminder, the EC50 is the midpoint of the concentration-response curve. Low values mean greater potency, high ones weaker potency.

This assay has as its target T1, Streptokinase A (Streptococcus pyogenes serotype M1, UniProt P10520).
T1 sequence (P10520 whole entry): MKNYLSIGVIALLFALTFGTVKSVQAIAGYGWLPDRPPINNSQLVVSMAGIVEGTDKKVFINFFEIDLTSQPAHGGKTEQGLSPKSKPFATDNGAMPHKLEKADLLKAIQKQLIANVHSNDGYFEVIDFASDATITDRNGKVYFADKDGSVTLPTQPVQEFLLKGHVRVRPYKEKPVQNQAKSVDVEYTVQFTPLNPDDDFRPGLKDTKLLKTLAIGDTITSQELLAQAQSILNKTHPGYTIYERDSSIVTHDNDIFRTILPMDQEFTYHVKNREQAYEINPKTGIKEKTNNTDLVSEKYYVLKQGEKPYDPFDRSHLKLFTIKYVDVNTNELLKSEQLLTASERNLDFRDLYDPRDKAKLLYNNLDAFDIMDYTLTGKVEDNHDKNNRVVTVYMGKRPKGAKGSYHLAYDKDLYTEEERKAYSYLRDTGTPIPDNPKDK
As to the kind of experiment: S. pyogenes streptokinase expression inhibitors, potency, dose response, plasminogen activation absorbance, OD405 (AID 1914).
With `CC(C)(C)c1cc(-c2cs/c(=N\c3ccccc3)n2Cc2ccc(C(=O)O)cc2)cc(C(C)(C)C)c1O` [4-[[4-(3,5-ditert-butyl-4-oxidanyl-phenyl)-2-phenylazanyl-1,3-thiazol-3-ium-3-yl]methyl]benzoic acid;bromide], the concentration giving a half-maximal response (EC50) is above 150 µM. As for `CCCCCCCn1[nH]c(C)c(C(=O)c2ccccc2)c1=O` [4-benzoyl-2-heptyl-5-methyl-2,4-dihydro-3H-pyrazol-3-one], the figure is above 150 µM; as for `Cc1ccc(NNC2=CS(=O)(=O)N(C)c3ccsc32)cc1` [4-methyl-N-[(1-methyl-2,2-dioxo-4-thieno[3,2-c]thiazinylidene)amino]aniline], 4.04 µM; as for `COC(=O)C1C(C)=NC2=C(C(=O)c3ccccc32)C1c1ccc(-c2ccc(C(=O)O)cc2)o1` (configuration not stated) [4-{5-[3-(methoxycarbonyl)-2-methyl-5-oxo-4,5-dihydro-1H-indeno[1,2-b]pyridin-4-yl]-2-furyl}benzoic acid], above 150 µM. `CCOc1cc(CN=Nc2cc(C)nc(-n3nc(C)cc3C)n2)ccc1O` [4-{[2-(3,5-Dimethyl-pyrazol-1-yl)-6-methyl-pyrimidin-4-yl]-hydrazonomethyl}-2-ethoxy-phenol]: the EC50 was above 150 µM. As for `CC1(C)CC(=O)C(C2C3=C(CC(C)(C)CC3=O)Oc3c(Br)cc(Br)cc32)C(=O)C1` (configuration not stated) [5,7-bis(bromanyl)-9-(4,4-dimethyl-2-oxidanyl-6-oxidanylidene-cyclohexen-1-yl)-3,3-dimethyl-4,9-dihydro-2H-xanthen-1-one], the figure is 24.8 µM; as for `Cc1ccsc1C1CC(c2cccc(Br)c2)=Nc2ncnn21` (configuration not stated) [5-(3-bromophenyl)-7-(3-methylthien-2-yl)-4,7-dihydro[1,2,4]triazolo[1,5-a]pyrimidine], above 150 µM. Regarding `Oc1nc(N=NCc2cccs2)sc1Cc1ccc(Cl)c(Cl)c1` [5-[(3,4-dichlorophenyl)methyl]-2-[2-(thiophen-2-ylmethylidene)hydrazinyl]-4-thiazolone], the 50% effective concentration (EC50) is above 150 µM. With `Oc1ccccc1CN=Nc1nc(O)c(Cc2ccc(F)cc2)s1` [5-[(4-fluorophenyl)methyl]-2-[2-[(E)-(6-oxidanylidenecyclohexa-2,4-dien-1-ylidene)methyl]hydrazinyl]-1,3-thiazol-4-one] the figure was above 150 µM; with `CCc1ccc2c(c1)=C(NNc1nc(-c3ccccc3)cs1)C(=O)N=2` [5-ethyl-1H-indole-2,3-dione 3-[(4-phenyl-1,3-thiazol-2(3H)-ylidene)hydrazone]], above 150 µM; with `COc1cc(CN=Nc2nc(Nc3ccccc3)nc(-n3nc(C)cc3C)n2)cc(OC)c1OC` [6-(3,5-dimethylpyrazol-1-yl)-N4-phenyl-N2-[(3,4,5-trimethoxyphenyl)methylideneamino]-1,3,5-triazine-2,4-diamine], above 150 µM.

In turn, `COc1ccc(OC)c(C2CC(C34CC5CC(CC(C5)C3)C4)=NC(=S)N2)c1` (configuration not stated) [6-Adamantan-1-yl-4-(2,5-dimethoxy-phenyl)-3,4-dihydro-1H-pyrimidine-2-thione] yielded an EC50 of 14.7 µM. With `CCOc1cccc(CN=Nc2ccc(S(=O)(=O)N(CC)CC)cn2)c1O` [6-[2-[(E)-(5-ethoxy-6-oxidanylidene-cyclohexa-2,4-dien-1-ylidene)methyl]hydrazinyl]-N,N-diethyl-pyridine-3-sulfonamide] the figure was above 150 µM; with `O=Nc1c(C2C(=O)Nc3cc(Br)ccc32)[nH]c2ccccc12` (configuration not stated) [6-bromoindirubin-3-oxime], 44.9 µM; with `CC(N=Nc1nc2ccc(Cl)cc2o1)c1ccccc1` (configuration not stated) [6-chloranyl-N-(1-phenylethylideneamino)-1,3-benzoxazol-2-amine], above 150 µM. As for `O=c1ccc2[n+]([O-])c3ccccc3n(O)c-2c1` [10-hydroxy-5-oxidophenazin-5-ium-2-one], the figure is above 150 µM; as for `CC(N=Nc1nc(N2CCCCCC2)nc(N2CCCCCC2)n1)c1ccccc1` (configuration not stated) [(1E)-1-phenylethanone (4,6-diazepan-1-yl-1,3,5-triazin-2-yl)hydrazone], 5.5 µM.
